The values below are quoted from earlier work in article PMC11472320, “Computationally Driven Discovery of a BCR-ABL1 Kinase Inhibitor with Activity in Multidrug-Resistant Chronic Myeloid Leukemia” (Journal of Medicinal Chemistry, 2024).

Each structure is given as a SMILES string. Like-named read-outs stand apart in the source and are kept apart here.

For data set [1] the following is noted: pH 7.4; cited from earlier work.
For the next data set, the system named is P-glycoprotein (P-gp). Conditions: Figure 1A; cited from earlier work.
Details of data set [2]: method as in earlier work. The note with it: human plasma; cited from earlier work.
For data set [3] the following is noted: pH 7.4; cited from earlier work. The source holds these as a separate data set.
The test system of another data set is MDCKII-MDR1 cells. The note with it: cited from earlier work.
For data set [4] the following is noted: cited from earlier work.

`COc1cc(Nc2c(C#N)cnc3cc(OCCCN4CCN(C)CC4)c(OC)cc23)c(Cl)cc1Cl` [Bosutinib, bosutinib]: the logD7.4 in data set [1] is reported as 3.1. Further, the P-gp efflux status entry with P-glycoprotein (P-gp) and with MDCKII-MDR1 cells was “P-gp Substrate” throughout. Besides, in data set [2], the “%Recovery” value was 94.01%. In addition, the “%Unbound” value in data set [2] is given as 4.52%. Moreover, the “Aq. Sol.” value in data set [3] is 14 µM. Besides, in the data set with MDCKII-MDR1 cells (Table S7), the “Papp(a-b)” value is reported as 0.38 10-6 cm/s. The “Recovery% (AP-BL)” value in the data set with MDCKII-MDR1 cells (Table S7) is on record as 56.02%. For the same compound, in the data set with MDCKII-MDR1 cells (Table S7), the “Recovery% (BL-AP)” value is listed as 65.52%. Besides, in the data set on MDCKII-MDR1 cells (a-b), the “MDCKII-MDR1 Papp (a-b)” value is 4 nm/s. The “Remaining Percentages” value is on record as 100.00% in data set [4] (0.5 min); 73.99% in data set [4] (15 min); 53.95% in data set [4] (60 min); 34.15% in data set [4] (90 min); 20.73% in data set [4] (120 min).
